Laboratory results: ChEMBL document CHEMBL1139913, “Synthesis, biological evaluations, and tubulin binding poses of C-2alpha sulfur linked taxol analogues” (Bioorg Med Chem Lett, 2007)
pIC50: −log10 of the molar value.

What was measured:
[1] = tested on: A2780; test: Cytotoxicity against A2780 cells by MTT assay; format: functional, cell-based; details: Homo sapiens
[2] = Cytotoxicity against A2780/AD cells by MTT assay; format: functional, cell-based; details: Homo sapiens, A2780 ADR

Row | Compound | pIC50 [1] | pIC50 [2]
1 | CC(=O)O[C@H]1C(=O)[C@@]2(C)[C@H]([C@H](SC(=O)c3ccccc3)[C@]3(O)C[C@H](OC(=O)[C@H](O)[C@@H](NC(=O)c4ccccc4)c4ccccc4)C(C)=C1C3(C)C)[C@]1(OC(C)=O)CO[C@@H]1C[C@@H]2O | 4.93 | 4.57
2 | CC(=O)O[C@H]1C(=O)[C@@]2(C)[C@H]([C@H](SCc3ccccc3)[C@]3(O)C[C@H](OC(=O)[C@H](O)[C@@H](NC(=O)c4ccccc4)c4ccccc4)C(C)=C1C3(C)C)[C@]1(OC(C)=O)CO[C@@H]1C[C@@H]2O | 5.00 | 5.03
3 | CC(=O)O[C@H]1C(=O)[C@@]2(C)[C@H]([C@H](SC(=O)c3ccccc3)[C@]3(O)C[C@H](OC(=O)[C@H](O)[C@@H](NC(=O)OC(C)(C)C)c4ccccc4)C(C)=C1C3(C)C)[C@]1(OC(C)=O)CO[C@@H]1C[C@@H]2O | 5.62 | 5.16
4 | CC(=O)O[C@H]1C(=O)[C@@]2(C)[C@H]([C@H](SCc3ccccc3)[C@]3(O)C[C@H](OC(=O)[C@H](O)[C@@H](NC(=O)OC(C)(C)C)c4ccccc4)C(C)=C1C3(C)C)[C@]1(OC(C)=O)CO[C@@H]1C[C@@H]2O | 5.46 | 5.08
5 | CC(=O)O[C@H]1C(=O)[C@@]2(C)[C@H]([C@H](OC(=O)c3ccccc3)[C@]3(O)C[C@H](OC(=O)[C@H](O)[C@@H](NC(=O)c4ccccc4)c4ccccc4)C(C)=C1C3(C)C)[C@]1(OC(C)=O)CO[C@@H]1C[C@@H]2O [PACLITAXEL] | 8.80 | 6.04
